“Also recorded” adds a separate entry of the source.
Assays:
[1] = Oxygen release from POGS (dissolved oxygen in media, hypoxia chamber); type: physicochemical
Experimental: (§1) Islets were obtained from male Sprague Dawley Rats (300-350 g) and cultured in vitro overnight at 37° C., 5% CO2. Supplemented CMRL media (Gibco) incubated at 0% O2 overnight in a hypoxia chamber (XVivo, Biospherix) in order to allow media to deoxygenate. Dissolved oxygen levels were measured in the media using dissolved oxygen meter (Oakton D110).
Phosphate-complexed calcium peroxide (PcCPO) was synthesized by mixing calcium peroxide (CPO) with phosphate-buffered saline at 10 mg/mL and incubating at 37° C. overnight. CP or PcCP was dissolved in a 1.5% UPLVM solution and alginate microcapsules were produced as described above. All oxygen concentration assays were performed in a controlled hypoxic chamber at 37° C. 5% CO2 0% ambient O2 to ensure that the data obtained was not confounded by changes in ambient O2 during the experiment.
[…] No islets were used in this experiment. […] When a 1:1 mixture of culture media and PBS was used, unencapsulated CPO (“PGS/PBS”) caused a rapid rise to 20% dissolved oxy gen which was sustained for at least an hour before gradually falling to 10%.

[2] = test system: islets; assay: Glucose-stimulated insulin release (GSIR) of islets cultured at 0% O2 with CPO; type: cell-based, Sprague Dawley Rats; settings: added to the culture media; p<0.05
Experimental: as §1
(§2) For all viability studies, islets were stained with the following probes to determine viability status based on positive staining: Calcein Blue: live; propidium iodide: dead; and YoPro-1; apoptotic. Islet function was evaluated by looking at glucose stimulated insulin response (GSIR). Islet stimulation index (insulin release at high glucose concentration/insulin release at low glucose concentrations) or SI was calculated after insulin release was quantified using an ELISA.
In order to be useful for diabetes treatment, the isolated islets must retain the ability to produce insulin, not just maintain viability. Thus, the insulin release characteristics of islets cultured at 0% O2 in the presence of CPO was investigated by measuring the glucose-stimulated insulin release (GSIR).

[3] = test system: islets; assay: Viability of isolated islets under hypoxia with CPO; type: cell-based, Sprague Dawley Rats; settings: 5 mg/ml or 10 mg/ml in culture media or culture media/PBS mixture; p<0.01 relative to 0% O2 without POGS
Experimental: as §1, §2
About 60% and 70% of islets were alive and viable immediately after isolation and after the 24 hour culture at 20% O2, respectively. However, the proportion of live/viable islets dropped to less than 30% after 24 hour culture at 0% O2. Islets cultured for 24 hours at 0% O2 were rescued by 5 mg/ml or 10 mg/ml CPO (“POGS”) in culture media or in the culture media/PBS mixture (p<0.01 relative to 0% O2 without POGS).

[4] = PFC oxygen content and release in culture media; type: physicochemical
Experimental: (§3) Islets from Sprague Dawley rats were isolated, cultured, and assessed as described above. Three concentrations of perfluorodecalin (“PFD”) were added to the culture media: 0.1 ml PFC/ml media (“low PFC”), 0.375 ml PFC/ml media (“medium PFC”), and 0.75 ml PFC/ml media (“high PFC”).
A first experiment was performed under 20% and 0% oxygen culture conditions in the absence of islets to characterize the oxygen release rates of various PFC concentrations and under different PFC-oxygen charging conditions. […] The PFCs were charged for 15 minutes in 40% O2 prior to plating.

[5] = test system: islets; assay: Effect of PFCs on islet viability in hypoxic culture; type: cell-based, Sprague Dawley rats; settings: for Apoptotic (%) / Dead (%) / Live (%): 0% O2, 24 hours
Experimental: as §2, §3
In a second experiment, islets were plated under 0% or 20% oxygen conditions, as outlined above. Hypoxic islets were supplemented with low, medium, or high PFC levels, charged for 15 minutes in 40% O2 prior to plating. Islet viability was assessed as described above.

[6] = test system: macrophages; assay: Macrophage attachment to microcapsules cultured with macrophages; type: cell-based; settings: incorporated in 2.5% UPLVM microcapsules with porcine islet cells
Experimental: Porcine islet cells were encapsulated to 2.5% UPLVM microcapsules using the methods described above. One set of microcapsules incorporated CXCL12/SLF-1 to investigate the locally immunosuppressive effects of this immunorepellant. Microcapsules were then cultured in the presence of macrophages.

[7] = medium PFC 0.375 ml PFC/ml media

Molecule: [Ca+2].[O-][O-] [CPO, calcium peroxide]
- Dissolved oxygen content ([1]; unencapsulated CPO 10 mg/ml in 1:1 culture media and PBS, after gradual fall): 10%
- Dissolved oxygen content ([1]; unencapsulated CPO 10 mg/ml in 1:1 culture media and PBS, rapid rise, sustained at least an hour): 20%
- Dissolved oxygen content ([1]; unencapsulated CPO 10 mg/ml in culture media, hypoxia chamber, immediate and sustained): about 40%
- Effect on reduction of GSIR in islets cultured 24 hrs at 0% O2 [2]: significantly reversed this reduction
- Viability of islets cultured 24 hours at 0% O2 [3]: rescued

Molecule: FC1(F)C(F)(F)C(F)(F)C2(F)C(F)(F)C(F)(F)C(F)(F)C(F)(F)C2(F)C1(F)F (centres unmarked) [PFC, perfluorodecalin]
- Time for oxygen content to fall from 40% to the ambient 20% ([4]; charged 15 to 90 minutes in 40% O2, added to culture media at 20% O2): ≤ 10 min
- O2 release profile under hypoxic conditions ([4]; charged 15 minutes in 40% O2): prolonged O2 release profile
- Apoptotic (%) ([5]; high PFC 0.75 ml PFC/ml media): 17.7%
- Dead (%) ([5]; high PFC 0.75 ml PFC/ml media): 39.9%
- Live (%) ([5]; high PFC 0.75 ml PFC/ml media): 42.3%
- Apoptotic (%) ([5]; low PFC 0.1 ml PFC/ml media): 8.73%
- Dead (%) ([5]; low PFC 0.1 ml PFC/ml media): 42.1%
- Live (%) ([5]; low PFC 0.1 ml PFC/ml media): 49.2%
- Apoptotic (%) [5, 7]: 0.355%
- Dead (%) [5, 7]: 69.1%
- Live (%) [5, 7]: 30.5%
- Islet viability at 24 hours under hypoxic conditions ([5]; all PFC concentrations): significantly improved islet viability

Molecule: CXCL12/SLF-1: immunorepellant incorporated into 2.5% UPLVM microcapsules
- Macrophage attachment to microcapsule [6]: no macrophage attachment; also recorded: observed only for the microcapsules lacking CXCL12/SLF-1

Molecule: Phosphate-complexed calcium peroxide [PcCPO]
- Dissolved oxygen content versus uncomplexed CPO ([1]; encapsulated, 5 mg/ml): higher dissolved oxygen content than uncomplexed CPO
- Effect on reduction of GSIR in islets cultured 24 hrs at 0% O2 [2]: significantly reversed this reduction

From patent US20180369289A1, “CELL TRANSPLANTATION DEVICE” (THE REGENTS OF THE UNIVERSITY OF CALIFORNIA, priority 2015, published 2018)
